Test results taken from patent publication US9273043B2, “TRPV1 antagonists including dihydroxy substituent and uses thereof” (Purdue Pharma L.P., priority 2011, dated 2016).
Converted amounts (≈) assume the structure as drawn. Where two headings read alike, the source gives them in different places. Marks after values point to notes of the source that are not given here. One block for each compound: values may come before it.

Experiments:
[1] = Aqueous solubility at pH 1.2 and pH 6.8; type: physicochemical; conditions: aqueous solution
[2] = In vivo assay of body temperature increase (rectal body temperature); set-up: species or system rat; conditions: rats, oral, 10 mL/kg of 1 mg/mL in 0.5% methylcellulose; greatest ΔTb versus vehicle control at 0.5, 1 or 2 hrs
Excerpt: Hyperthermia or undesirable elevation in animal body temperature is known to be an undesirable side-effect accompanying the administration of certain TRPV1 antagonists (Gavva, “Body-temperature maintenance as the predominant function of the vanilloid receptor TRPV1,” Trends Pharmacol. Sci. 29(11):550-557 (2008)).
Test Animals: Selection of rats (Crl/SD rats, 7 weeks, male) was based on rectal body temperature measured during the morning of the day of dosing as described below. In addition, to minimize spontaneous, stress-induced increases in body temperature, rats were acclimated in advance to both the rectal measurement procedure and to being handled and dosed. All lodging and testing took place in animal care laboratories with constant room temperature and humidity. The rats were free to move and ingest food and water throughout. Each rat was coded with a colored line on the tail, housed in a separate cage, and permitted the normal range of movement. Immediately before each body temperature measurement, a rat was transferred to a measurement cage. To reduce stress which could influence its body temperature, each rat was covered with towels during the measurement. A thermistor probe was then carefully inserted into the rectum of each rat and left in place until the temperature reading on the digital display had stabilized; this value was recorded.
Assay: On the day before dosing, rectal body temperature was measured at 9:00, 10:00, 11:00, 12:30, 13:30, 14:30, and 15:30 o'clock to familiarize the rats with the measurement procedure prior to administration of the test or control treatments. The rats were also dosed by oral gavage without vehicle at 12:30 o'clock to acclimate and familiarize them with the handling and dosing procedure.
On the day of dosing, only rats with rectal body temperatures within the range of from 37.0° C. to 37.7° C. were selected for study. Rectal body temperatures were measured at 9:00, 10:00, and 11:00 o'clock. Rats were excluded from the study if either their rectal body temperature was over 37.9° C. at 10:00 o'clock or was outside the range of from 37.0° C. to 37.7° C. at 11:00 o'clock. The selected rats were divided into several groups based on their rectal body temperatures at 11:00 o'clock. Rectal body temperatures of the selected rats were measured again at 12:30 o'clock and any rat with a rectal body temperature of 38.0° C. or greater was also excluded from the study.
Following assignment to either a test or control group, a test compound or a control was administered to the rats. Each test compound was dissolved in a vehicle of 0.5% aqueous methylcellulose solution and the final concentration of the test compound was adjusted to 1 mg/mL. Each test compound was orally administered once at a dose of 10 mL/kg. The same volume of the control (vehicle only) was administered once to the control group. Rectal body temperatures were measured at the following time points: 0.5, 1, and 2 hrs after administration.
The body temperature increase (ΔTb) for each test compound was calculated by subtracting, at each time point, the average temperature of the control group from the average temperature of the group administered that test compound. The greatest ΔTb obtained for each test compound at any of the time points is shown in Table 11 below, along with the ΔTb of the control.

[3] = system: FCA-induced inflammation of the rat hind paw; assay: Freund's complete adjuvant (FCA) model of inflammatory pain, paw withdrawal threshold; type: in vivo; conditions: rat FCA, 20 mg/kg
Protocol: Test Animals: Each experiment uses rats weighing between 200-260 g at the start of the experiment. The rats are group-housed and have free access to food and water at all times, except prior to oral administration of a Compound of Formula (I) when food is removed for 16 hours before dosing. A control group acts as a comparison to rats treated with a Compound of Formula (I). The control group is administered the vehicle for the Compound of Formula (I). The volume of vehicle administered to the control group is the same as the volume of carrier and Compound of Formula (I) administered to the test group.
Inflammatory Pain: To assess the actions of a Compound of Formula (I) for the treatment or prevention of inflammatory pain, the Freund's complete adjuvant (“FCA”) model of inflammatory pain was used. FCA-induced inflammation of the rat hind paw is associated with the development of persistent inflammatory mechanical hyperalgesia and provides reliable prediction of the anti-hyperalgesic action of clinically useful analgesic drugs (Bartho et al., “Involvement of capsaicin-sensitive neurons in hyperalgesia and enhanced opioid antinociception in inflammation,” Naunyn-Schmiedeberg's Archives of Pharmacol. 342:666-670 (1990)). The right hind paw of each male, 6-week old Jcl:SD rat was administered a 50 μL intraplantar injection of 50% FCA (Sigma-Aldrich). 24 hour post-injection, the animal was assessed for response to noxious mechanical stimuli by determining the PWT, as described below. Rats were then administered a single injection of 0.1, 0.3, 1, 3, or 10 mg/kg of either the product prepared with Compound A155(a) and fumaric acid as described in Example 10, 20 mg/kg of an ibuprofen control (EMD Millipore Chemicals, Inc.), or vehicle as a control (0.5% weight/volume methylcellulose (400cP, Wako Pure Chemical Industries, Ltd., Osaka, Japan)/aqueous solution). […] Responses to noxious mechanical stimuli were then determined 1, 3, 5, and 7 hours post-administration. Percentage reversal of hyperalgesia for each animal was defined as: […]
With the exception of the controls (i.e., ibuprofen, vehicle) where the student's t-test was used, Dunnett's test was conducted for the % reversal. In either instance, values with p<0.05 were considered to be statistically significant. The % reversal results for administration of the product prepared with Compound A155(a) and fumaric acid as described in Example 10 and the respective controls are presented in Table 7.
Response to Mechanical Stimuli as an Assessment of Mechanical Hyperalgesia: The paw pressure assay was used to assess mechanical hyperalgesia. For this assay, hind paw withdrawal thresholds (PWT) to a noxious mechanical stimulus were determined using an analgesymeter (Model 37215, commercially available from Ugo Basile of Italy) as described in Stein, “Unilateral Inflammation of the Hindpaw in Rats as a Model of Prolonged Noxious Stimulation: Alterations in Behavior and Nociceptive Thresholds,” Pharmacol. Biochem. and Behavior 31:451-455 (1988). The maximum weight that could be applied to the hind paw was set at 250 g and the end point was taken as complete withdrawal of the paw. PWT was determined once for each rat at each time point and either only the affected (ipsilateral) paw was tested, or both the ipsilateral and contralateral (non-injured) paw were tested.

[4] = pH 1.2, read-out: aqueous solubility at pH 1.2
[5] = pH 6.8, read-out: aqueous solubility at pH 6.8

solubility [1, 4]: 10.3 µM (≈ 4.15 µg/mL)
solubility [1, 5]: 1.9 µM (≈ 0.766 µg/mL)
SMILES: O=C(Nc1ccc(C(F)(F)F)c(F)c1)N1CCC(F)(c2ncccc2F)CC1 [Compound 212]

ΔTb, body temperature increase [2]: 0.7 °C
SMILES: C[C@@H]1CN(c2ncc([C@H](O)CO)cc2F)CCN1C(=O)Nc1nc2cc(F)ccc2s1 [DK]

solubility [1, 4]: 2.0 µM (≈ 0.932 µg/mL)
solubility [1, 5]: 0.4 µM (≈ 0.186 µg/mL)
SMILES: O=C(Nc1ccc(S(=O)(=O)C(F)(F)F)cc1)N1CCC(F)(c2ncccc2Cl)CC1 [Compound 210]

solubility [1, 4]: 9.6 µM (≈ 3.84 µg/mL)
solubility [1, 5]: 0.6 µM (≈ 0.24 µg/mL)
SMILES: O=C(Nc1ccc(C(F)(F)F)c(Cl)c1)N1CC=C(c2ncccc2F)CC1 [Compound 215]

ΔTb, body temperature increase [2]: 1.0 °C
SMILES: O=C(Nc1nc2ccc(F)cc2s1)N1CCN(c2ncc([C@H](O)CO)cc2Cl)CC1 [DD]

ΔTb, body temperature increase [2]: 0.9 °C
SMILES: C[C@@H]1CN(c2ncc([C@H](O)CO)cc2Cl)CCN1C(=O)Nc1nc2ccccc2s1 [DA]

ΔTb, body temperature increase [2]: 0.6 °C
SMILES: C[C@H]1CN(C(=O)Nc2nc3ccc(F)cc3s2)CCN1c1ncc([C@H](O)CO)cc1F [AD]

ΔTb, body temperature increase [2]: 0.8 °C
SMILES: Cc1cc([C@H](O)CO)cnc1N1CCN(C(=O)Nc2nc3ccc(Cl)cc3s2)CC1 [DN]

aqueous solubility at pH 6.8 ([1]; pH 6.8): insoluble
SMILES: O=C(Nc1ccc(C(F)(F)F)cc1)N1CC=C(c2ncccc2F)CC1 [Compound 208]

ΔTb, body temperature increase [2]: 0.9 °C
SMILES: Cc1cc2nc(NC(=O)N3CCN(c4ncc([C@H](O)CO)cc4F)C[C@H]3C)sc2cc1C [DL]

solubility [1, 4]: 39.6 µM (≈ 15.8 µg/mL)
solubility [1, 5]: 0.8 µM (≈ 0.32 µg/mL)
SMILES: O=C(Nc1ccc(C(F)(F)F)c(F)c1)N1CC=C(c2ncccc2Cl)CC1 [Compound 213]

ΔTb, body temperature increase [2]: 0.6 °C
SMILES: C[C@H]1CN(c2ncc([C@H](O)CO)cc2F)CCN1C(=O)Nc1nc2ccc(Cl)cc2s1 [AB]

ΔTb, body temperature increase [2]: 1.0 °C
SMILES: C[C@@H]1CN(c2ncc([C@H](O)CO)cc2F)CCN1C(=O)Nc1nc2ccc(F)cc2s1 [DG]

ΔTb, body temperature increase [2]: 0.9 °C
SMILES: Cc1cc2nc(NC(=O)N3CCN(c4ncc([C@H](O)CO)cc4C)CC3)sc2cc1C [DM]

ΔTb, body temperature increase [2]: 0.7 °C
SMILES: C[C@H]1CN(c2ncc([C@H](O)CO)cc2F)CCN1C(=O)Nc1nc2ccc(F)cc2s1 [AC]

solubility [1, 4]: < 0.1 µM
SMILES: O=C(Nc1ccc(C(F)(F)F)cc1)N1CC=C(c2ncccc2Cl)CC1 [Compound 200]

aqueous solubility at pH 6.8 ([1]; pH 6.8): insoluble
SMILES: O=C(Nc1ccc(C(F)(F)F)cc1)N1CCC(F)(c2ncccc2Cl)CC1 [Compound 203]

solubility [1, 4]: 1.3 µM (≈ 0.543 µg/mL)
solubility [1, 5]: 0.4 µM (≈ 0.167 µg/mL)
SMILES: O=C(Nc1ccc(OC(F)(F)F)cc1)N1CCC(F)(c2ncccc2Cl)CC1 [Compound 211]

ΔTb, body temperature increase [2]: 1.3 °C
SMILES: C[C@@H]1CN(c2ncc([C@H](O)CO)cc2Cl)CCN1C(=O)Nc1nc2ccc(F)cc2s1 [DE]

ΔTb, body temperature increase [2]: 0.9 °C
SMILES: O=C(Nc1nc2ccc(F)cc2s1)N1CCN(c2ncc([C@H](O)CO)cc2C(F)(F)F)CC1 [DH]

SMILES: CC(C)Cc1ccc(C(C)C(=O)O)cc1 (stereo not drawn) [Ibuprofen, ibuprofen, reference compound]
% Reversal [mean] ([3]; 1 h after administration): 28.6^†† %
% Reversal [mean] ([3]; 1 h after administration, listed as ibuprofen): 28.6%
% Reversal [mean] ([3]; 3 h after administration): 41.5^†† %
% Reversal [mean] ([3]; 3 h after administration, listed as ibuprofen): 41.5%
% Reversal [mean] ([3]; 5 h after administration): 39.2^†† %
% Reversal [mean] ([3]; 5 h after administration, listed as ibuprofen): 39.2%
% Reversal [mean] ([3]; 7 h after administration): 32.5^†† %
% Reversal [mean] ([3]; 7 h after administration, listed as ibuprofen): 32.5%

ΔTb, body temperature increase [2]: 0.8 °C
SMILES: C[C@H]1CN(c2ncc([C@H](O)CO)cc2Cl)CCN1C(=O)Nc1nc2ccc(F)cc2s1 [AA]

ΔTb, body temperature increase [2]: 1.1 °C
SMILES: COc1ccc2nc(NC(=O)N3CCN(c4ncc([C@H](O)CO)cc4F)C[C@H]3C)sc2c1 [DO]

ΔTb, body temperature increase [2]: 0.9 °C
SMILES: Cc1ccc2nc(NC(=O)N3CCN(c4ncc([C@H](O)CO)cc4Cl)CC3)sc2c1 [DJ]

ΔTb, body temperature increase [2]: 1.2 °C
SMILES: COc1ccc2nc(NC(=O)N3CCN(c4ncc([C@H](O)CO)cc4Cl)CC3)sc2c1 [DP]

ΔTb, body temperature increase [2]: 0.9 °C
SMILES: C[C@H](O)[C@@H](O)c1cnc(N2CCN(C(=O)Nc3nc4ccc(F)cc4s3)[C@H](C)C2)c(Cl)c1 [BA]

ΔTb, body temperature increase [2]: 0.5 °C
SMILES: O=C(Nc1nc2ccc(F)cc2s1)N1CCN(c2ncc([C@H](O)CO)cc2F)CC1 [DF]

solubility [1, 4]: 9.3 µM (≈ 3.9 µg/mL)
solubility [1, 5]: 1.0 µM (≈ 0.42 µg/mL)
SMILES: O=C(Nc1ccc(C(F)(F)F)c(F)c1)N1CCC(F)(c2ncccc2Cl)CC1 [Compound 209]

ΔTb, body temperature increase [2]: 0.7 °C
SMILES: C[C@H](O)[C@@H](O)c1cnc(N2CCN(C(=O)Nc3nc4ccc(F)cc4s3)[C@H](C)C2)c(F)c1 [BC]

solubility [1, 4]: > 50 µM
solubility [1, 5]: 1.8 µM (≈ 0.716 µg/mL)
SMILES: O=C(Nc1ccc(OC(F)(F)F)cc1)N1CC=C(c2ncccc2Cl)CC1 [Compound 214]

ΔTb, body temperature increase [2]: 1.1 °C
SMILES: C[C@@H]1CN(c2ncc([C@H](O)CO)cc2F)CCN1C(=O)Nc1nc2ccccc2s1 [DB]

ΔTb, body temperature increase [2]: 0.8 °C
SMILES: C[C@@H]1CN(c2ncc([C@H](O)CO)cc2C(F)(F)F)CCN1C(=O)Nc1nc2ccc(F)cc2s1 [DI]

aqueous solubility at pH 6.8 ([1]; pH 6.8): insoluble
SMILES: O=C(Nc1ccc(C(F)(F)F)cc1)N1CCC(F)(c2ncccc2F)CC1 [Compound 207]

ΔTb, body temperature increase [2]: 1.0 °C
SMILES: C[C@@H]1CN(c2ncc([C@H](O)CO)cc2C(F)(F)F)CCN1C(=O)Nc1nc2ccccc2s1 [DC]
